Test results as given in patent US9833497B2, “Human originated EGF domain proteins and use of the same” (CHENGDU SOURCEBIO LIMITED-LIABILITY COMPANY, priority 2013, dated 2017).

Assays:
Type in all cases: cell-based
E. coli DH5α = assay: Antibacterial activity: MIC and growth curve against E. coli DH5α in 96-well plate; details: minimal inhibitory concentration against E. coli DH5α; 96-well plate, 5×10^5 CFU/mL, 37° C., judged after 8 h
Method in brief: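 Log-phase bacteria (OD600 ~0.5) resuspended in LB at 5×10^5 CFU/mL, exposed to recombinant protein at 50, 25, 12.5 μg/mL final in triplicate, 37 °C shaking at 175 rpm. OD600 read every 30 min; MIC is lowest concentration showing no growth.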

E. coli BL21 = assay: MIC against Gram-negative bacteria: E. coli BL21; details: 5×10^5 CFU/mL
Method in brief: (§1)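 Growth inhibition by human EGF domain proteins was scored in LB liquid culture seeded at 5×10^5 CFU/mL. Protein was applied as a two-fold dilution series in triplicate, with shaking incubation at 37° C; MIC is the lowest concentration giving no growth.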

Pseudomonas aeruginosa = assay: MIC against Gram-negative bacteria: Pseudomonas aeruginosa; details: 5×10^5 CFU/mL
Method in brief: as §1

Klebsiella pneumonia = assay: MIC against Gram-negative bacteria: Klebsiella pneumonia; details: 5×10^5 CFU/mL
Method in brief: as §1

Enterobacter cloacae = assay: MIC against Gram-negative bacteria: Enterobacter cloacae; details: 5×10^5 CFU/mL
Method in brief: as §1

Aeromonas hydrophila = assay: MIC against Gram-negative bacteria: Aeromonas hydrophila; details: 5×10^5 CFU/mL
Method in brief: as §1

Citrobacter diversus = assay: MIC against Gram-negative bacteria: Citrobacter diversus; details: 5×10^5 CFU/mL
Method in brief: as §1

Moraxella catarrhalis = assay: MIC against Gram-negative bacteria: Moraxella catarrhalis; details: 5×10^5 CFU/mL
Method in brief: as §1

Proteus mirabilis = assay: MIC against Gram-negative bacteria: Proteus mirabilis; details: 5×10^5 CFU/mL
Method in brief: as §1

Proteus vulgaris = assay: MIC against Gram-negative bacteria: Proteus vulgaris; details: 5×10^5 CFU/mL
Method in brief: as §1

Serratia marcescens = assay: MIC against Gram-negative bacteria: Serratia marcescens; details: 5×10^5 CFU/mL
Method in brief: as §1

[1] = E. coli BL21, 10 h cultivation at 37° C.
[2] = P. aeruginosa, 10 h cultivation at 37° C.
[3] = K. pneumonia, 10 h cultivation at 37° C.
[4] = E. cloacae, 10 h cultivation at 37° C.
[5] = A. hydrophila, 10 h cultivation at 37° C.
[6] = C. diversus, 10 h cultivation at 37° C.
[7] = M. catarrhalis, 10 h cultivation at 37° C.
[8] = P. mirabilis, 10 h cultivation at 37° C.
[9] = P. vulgaris, 10 h cultivation at 37° C.
[10] = S. marcescens, 10 h cultivation at 37° C.
[11] = E. coli BL21, 96-well plate, 37° C., 10 h
[12] = Pseudomonas aeruginosa, 96-well plate, 37° C., 10 h
[13] = Klebsiella pneumonia, 96-well plate, 37° C., 10 h
[14] = Enterobacter cloacae, 96-well plate, 37° C., 10 h
[15] = Aeromonas hydrophila, 96-well plate, 37° C., 10 h
[16] = Citrobacter diversus, 96-well plate, 37° C., 10 h
[17] = Moraxella catarrhalis, 96-well plate, 37° C., 10 h
[18] = Proteus mirabilis, 96-well plate, 37° C., 10 h
[19] = Proteus vulgaris, 96-well plate, 37° C., 10 h
[20] = Serratia marcescens, 96-well plate, 37° C., 10 h

## PRT672 (DIDECMLFGSEICKEGKCVNTQPGYECYCKQGFYYDGNLLECV; listed as Homo sapiens)
E. coli DH5α
  MIC: 12.5 µg/mL
E. coli BL21; 96-well plate, 37° C., 10 h
  MIC E. coli BL21: 25 µg/mL
Pseudomonas aeruginosa; 96-well plate, 37° C., 10 h
  MIC P. aeruginosa: 12.5 µg/mL
Klebsiella pneumonia; 96-well plate, 37° C., 10 h
  MIC K. pneumonia: 25 µg/mL
Enterobacter cloacae; 96-well plate, 37° C., 10 h
  MIC E. cloacae: 12.5 µg/mL
Aeromonas hydrophila; 96-well plate, 37° C., 10 h
  MIC A. hydrophila: 12.5 µg/mL
Citrobacter diversus; 96-well plate, 37° C., 10 h
  MIC C. diversus: 25 µg/mL
Moraxella catarrhalis; 96-well plate, 37° C., 10 h
  MIC M. catarrhalis: 12.5 µg/mL
Proteus mirabilis; 96-well plate, 37° C., 10 h
  MIC P. mirabilis: 25 µg/mL
Proteus vulgaris; 96-well plate, 37° C., 10 h
  MIC P. vulgaris: 50 µg/mL
Serratia marcescens; 96-well plate, 37° C., 10 h
  MIC S. marcescens: 12.5 µg/mL

## PRT887 (LNDACISNPCNEGSNCDTNPVNGKAICTCPSGYTGPACS; listed as Homo sapiens)
E. coli DH5α
  MIC: 12.5 µg/mL
E. coli BL21; [1]
  MIC (μg/mL) E. coli BL21: 25 µg/mL
Pseudomonas aeruginosa; [2]
  MIC (μg/mL) P. aeruginosa: 12.5 µg/mL
Klebsiella pneumonia; [3]
  MIC (μg/mL) K. pneumonia: 25 µg/mL
Enterobacter cloacae; [4]
  MIC (μg/mL) E. cloacae: 50 µg/mL
Aeromonas hydrophila; [5]
  MIC (μg/mL) A. hydrophila: 25 µg/mL
Citrobacter diversus; [6]
  MIC (μg/mL) C. diversus: 12.5 µg/mL
Moraxella catarrhalis; [7]
  MIC (μg/mL) M. catarrhalis: 25 µg/mL
Proteus mirabilis; [8]
  MIC (μg/mL) P. mirabilis: 50 µg/mL
Proteus vulgaris; [9]
  MIC (μg/mL) P. vulgaris: 12.5 µg/mL
Serratia marcescens; [10]
  MIC (μg/mL) S. marcescens: 50 µg/mL

## PRT1276 (LTCNYGNGGCQHTCDDTEQGPRCGCHIKFVLHTDGKTCI; listed as Homo sapiens)
E. coli DH5α
  MIC: 50 µg/mL
E. coli BL21; [11]
  MIC against E. coli BL21: 12.5 µg/mL
Pseudomonas aeruginosa; [12]
  MIC against P. aeruginosa: 50 µg/mL
Klebsiella pneumonia; [13]
  MIC against K. pneumonia: 12.5 µg/mL
Enterobacter cloacae; [14]
  MIC against E. cloacae: 50 µg/mL
Aeromonas hydrophila; [15]
  MIC against A. hydrophila: 12.5 µg/mL
Citrobacter diversus; [16]
  MIC against C. diversus: 50 µg/mL
Moraxella catarrhalis; [17]
  MIC against M. catarrhalis: 12.5 µg/mL
Proteus mirabilis; [18]
  MIC against P. mirabilis: 50 µg/mL
Proteus vulgaris; [19]
  MIC against P. vulgaris: 12.5 µg/mL
Serratia marcescens; [20]
  MIC against S. marcescens: 50 µg/mL

## PRT661 (QAEECGILNGCENGRCVRVREGYTCDCFEGFQLDAAHMACV; listed as Homo sapiens)
E. coli DH5α
  MIC: 50 µg/mL
E. coli BL21; 96-well plate, 37° C., 10 h
  MIC E. coli BL21: 25 µg/mL
Pseudomonas aeruginosa; 96-well plate, 37° C., 10 h
  MIC P. aeruginosa: 12.5 µg/mL
Klebsiella pneumonia; 96-well plate, 37° C., 10 h
  MIC K. pneumonia: 25 µg/mL
Enterobacter cloacae; 96-well plate, 37° C., 10 h
  MIC E. cloacae: 50 µg/mL
Aeromonas hydrophila; 96-well plate, 37° C., 10 h
  MIC A. hydrophila: 25 µg/mL
Citrobacter diversus; 96-well plate, 37° C., 10 h
  MIC C. diversus: 12.5 µg/mL
Moraxella catarrhalis; 96-well plate, 37° C., 10 h
  MIC M. catarrhalis: 25 µg/mL
Proteus mirabilis; 96-well plate, 37° C., 10 h
  MIC P. mirabilis: 50 µg/mL
Proteus vulgaris; 96-well plate, 37° C., 10 h
  MIC P. vulgaris: 25 µg/mL
Serratia marcescens; 96-well plate, 37° C., 10 h
  MIC S. marcescens: 25 µg/mL

## PRT222 (DVDECAQALHDCRPSQDCHNLPGSYQCTCPDGYRKIGPECV; listed as Homo sapiens)
E. coli DH5α
  MIC: 50 µg/mL
E. coli BL21; [1]
  MIC (μg/mL) E. coli BL21: 12.5 µg/mL
Pseudomonas aeruginosa; [2]
  MIC (μg/mL) P. aeruginosa: 12.5 µg/mL
Klebsiella pneumonia; [3]
  MIC (μg/mL) K. pneumonia: 12.5 µg/mL
Enterobacter cloacae; [4]
  MIC (μg/mL) E. cloacae: 25 µg/mL
Aeromonas hydrophila; [5]
  MIC (μg/mL) A. hydrophila: 12.5 µg/mL
Citrobacter diversus; [6]
  MIC (μg/mL) C. diversus: 25 µg/mL
Moraxella catarrhalis; [7]
  MIC (μg/mL) M. catarrhalis: 12.5 µg/mL
Proteus mirabilis; [8]
  MIC (μg/mL) P. mirabilis: 25 µg/mL
Proteus vulgaris; [9]
  MIC (μg/mL) P. vulgaris: 12.5 µg/mL
Serratia marcescens; [10]
  MIC (μg/mL) S. marcescens: 25 µg/mL

## PRT95 (DINECETGQHNCVPNSVCINTRGSFQCGPCQPGFVGDQASGCQ; listed as Homo sapiens)
E. coli DH5α
  MIC: 25 µg/mL
E. coli BL21; [11]
  MIC (μg/mL) E. coli BL21: 12.5 µg/mL
Pseudomonas aeruginosa; [12]
  MIC (μg/mL) P. aeruginosa: 50 µg/mL
Klebsiella pneumonia; [13]
  MIC (μg/mL) K. pneumonia: 12.5 µg/mL
Enterobacter cloacae; [14]
  MIC (μg/mL) E. cloacae: 50 µg/mL
Aeromonas hydrophila; [15]
  MIC (μg/mL) A. hydrophila: 12.5 µg/mL
Citrobacter diversus; [16]
  MIC (μg/mL) C. diversus: 50 µg/mL
Moraxella catarrhalis; [17]
  MIC (μg/mL) M. catarrhalis: 12.5 µg/mL
Proteus mirabilis; [18]
  MIC (μg/mL) P. mirabilis: 25 µg/mL
Proteus vulgaris; [19]
  MIC (μg/mL) P. vulgaris: 50 µg/mL
Serratia marcescens; [20]
  MIC (μg/mL) S. marcescens: 25 µg/mL

## PRT151 (GCKYLSDINITRYNINCRENRACNELFHCQCDPGYAPPDCE; listed as Homo sapiens)
E. coli DH5α
  MIC: 12.5 µg/mL
E. coli BL21; [1]
  MIC (μg/mL) E. coli BL21: 50 µg/mL
Pseudomonas aeruginosa; [2]
  MIC (μg/mL) P. aeruginosa: 12.5 µg/mL
Klebsiella pneumonia; [3]
  MIC (μg/mL) K. pneumonia: 50 µg/mL
Enterobacter cloacae; [4]
  MIC (μg/mL) E. cloacae: 12.5 µg/mL
Aeromonas hydrophila; [5]
  MIC (μg/mL) A. hydrophila: 50 µg/mL
Citrobacter diversus; [6]
  MIC (μg/mL) C. diversus: 25 µg/mL
Moraxella catarrhalis; [7]
  MIC (μg/mL) M. catarrhalis: 12.5 µg/mL
Proteus mirabilis; [8]
  MIC (μg/mL) P. mirabilis: 25 µg/mL
Proteus vulgaris; [9]
  MIC (μg/mL) P. vulgaris: 50 µg/mL
Serratia marcescens; [10]
  MIC (μg/mL) S. marcescens: 12.5 µg/mL
